According to patent US20030135023A1, “Peptide structures useful for competitive modulation of dipeptidyl peptidase IV catalysis” (priority 2001, published 2003):
Like-named read-outs stand apart in the source and are kept apart here. Square brackets hold non-standard residues; d marks the D form. Peptide text beside a SMILES is read from it. pY = N[C@@H](Cc1ccc(OP(=O)(O)O)cc1)C(=O)O; pS = N[C@@H](COP(=O)(O)O)C(=O)O; Cha = N[C@@H](CC1CCCCC1)C(=O)O; Tle = CC(C)(C)[C@H](N)C(=O)O

Legend:
[1] = target: T1, purified porcine DP IV (Sus scrofa, UniProt P22411); assay: Determination of IC50-values, Gly-Pro-pNA cleavage by DP IV; type: biochemical
T1 sequence (P22411 whole entry): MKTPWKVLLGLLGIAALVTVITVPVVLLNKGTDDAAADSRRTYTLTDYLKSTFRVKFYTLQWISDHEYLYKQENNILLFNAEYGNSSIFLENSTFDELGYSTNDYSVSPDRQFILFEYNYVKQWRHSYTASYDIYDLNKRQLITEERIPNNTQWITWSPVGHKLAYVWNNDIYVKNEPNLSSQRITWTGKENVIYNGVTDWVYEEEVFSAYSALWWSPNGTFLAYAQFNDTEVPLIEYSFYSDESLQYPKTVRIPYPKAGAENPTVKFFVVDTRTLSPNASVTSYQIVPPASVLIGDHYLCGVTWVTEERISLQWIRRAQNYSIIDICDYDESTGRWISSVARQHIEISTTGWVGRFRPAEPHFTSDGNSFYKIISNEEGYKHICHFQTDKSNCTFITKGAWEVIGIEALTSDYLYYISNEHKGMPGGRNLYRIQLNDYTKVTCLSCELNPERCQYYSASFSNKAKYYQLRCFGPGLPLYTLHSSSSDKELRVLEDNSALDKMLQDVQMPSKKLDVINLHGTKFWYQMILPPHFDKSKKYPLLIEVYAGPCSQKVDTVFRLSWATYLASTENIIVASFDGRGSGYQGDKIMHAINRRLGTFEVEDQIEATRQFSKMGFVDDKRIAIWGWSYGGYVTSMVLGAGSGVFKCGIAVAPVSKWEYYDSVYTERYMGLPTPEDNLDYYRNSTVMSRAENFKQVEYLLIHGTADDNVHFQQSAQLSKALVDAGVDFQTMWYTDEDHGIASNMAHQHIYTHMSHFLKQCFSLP
Protocol: (§1) 100 μl inhibitor stock solution were mixed with 100 μl buffer (HEPES pH 7.6) and 50 μl substrate (Gly-Pro-pNA, final concentration 0.4 mM) and preincubated at 30° C. Reaction was started by addition of 20 μl purified porcine DP IV. Formation of the product pNA was measured at 405 nm over 10 min using the HTS 7000 Plus plate reader (Perkin Elmer) and slopes were calculated. The final inhibitor concentrations ranged between 1 mM and 30 nM.
For calculation of IC50-values GraFit 4.0.13 (Erithacus Software) was used.

[2] = target: T1, purified porcine DP IV; assay: Determination of Ki-values, Gly-Pro-pNA cleavage by DP IV; type: biochemical; conditions: Gly-Pro-pNA 0.05-0.4 mM
Protocol: as §1
Calculations were performed using the GraFit Software.

[3] = target: T2, PEPT1 (Homo sapiens, UniProt P46059); assay: Competition assay with transgenic yeast cells, displacement of radiolabeled tracer dipeptide, PEPT1; type: binding, mammalian
T2 construct: expressed in transfected cells; host or cells: transgenic yeast cells
T2 sequence (P46059 1-708): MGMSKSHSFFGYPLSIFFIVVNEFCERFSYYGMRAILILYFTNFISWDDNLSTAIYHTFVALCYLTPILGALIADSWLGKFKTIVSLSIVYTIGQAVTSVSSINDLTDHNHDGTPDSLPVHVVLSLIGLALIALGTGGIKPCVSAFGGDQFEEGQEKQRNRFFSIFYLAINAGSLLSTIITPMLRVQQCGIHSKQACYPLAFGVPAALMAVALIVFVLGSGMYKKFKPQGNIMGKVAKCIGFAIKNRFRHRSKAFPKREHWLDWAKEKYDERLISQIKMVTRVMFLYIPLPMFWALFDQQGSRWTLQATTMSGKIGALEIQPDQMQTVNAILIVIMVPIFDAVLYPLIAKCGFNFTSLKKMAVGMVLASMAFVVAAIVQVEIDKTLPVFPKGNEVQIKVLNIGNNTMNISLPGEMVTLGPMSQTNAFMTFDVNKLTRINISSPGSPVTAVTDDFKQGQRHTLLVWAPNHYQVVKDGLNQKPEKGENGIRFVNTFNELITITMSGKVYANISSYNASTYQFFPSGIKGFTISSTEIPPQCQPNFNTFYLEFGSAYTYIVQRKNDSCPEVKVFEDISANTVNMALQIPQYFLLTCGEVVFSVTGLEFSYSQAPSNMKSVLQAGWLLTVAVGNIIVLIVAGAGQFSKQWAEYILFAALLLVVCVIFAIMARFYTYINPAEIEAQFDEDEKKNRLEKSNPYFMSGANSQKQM
Description: (§2) For the analysis o the interaction of the inhibitors of prolyl-specific proteases with the mammalian peptide transporters two assay systems were used. First, all test compounds were submitted to the competition assay with transgenic yeast cells to determine the dose-dependent displacement (EC50 values) of the radiolabeled tracer dipepitde from the substrate binding site. […] As the level of functional expression varies in oocytes, each test compound was compared in the same oocyte with the current elicited by 5 mM of the dipeptide glycyl-L-glutamine (Gly-Gln). Currents of test compounds are therefore given relative to that by Gly-Gln as %I Gly-Gin, expressed as residual uptake in table 10.

[4] = target: T3, PEPT2 (Homo sapiens, UniProt Q16348); assay: Competition assay with transgenic yeast cells, displacement of radiolabeled tracer dipeptide, PEPT2; type: binding, mammalian
T3 construct: expressed in transfected cells; host or cells: transgenic yeast cells
T3 sequence (Q16348 1-729): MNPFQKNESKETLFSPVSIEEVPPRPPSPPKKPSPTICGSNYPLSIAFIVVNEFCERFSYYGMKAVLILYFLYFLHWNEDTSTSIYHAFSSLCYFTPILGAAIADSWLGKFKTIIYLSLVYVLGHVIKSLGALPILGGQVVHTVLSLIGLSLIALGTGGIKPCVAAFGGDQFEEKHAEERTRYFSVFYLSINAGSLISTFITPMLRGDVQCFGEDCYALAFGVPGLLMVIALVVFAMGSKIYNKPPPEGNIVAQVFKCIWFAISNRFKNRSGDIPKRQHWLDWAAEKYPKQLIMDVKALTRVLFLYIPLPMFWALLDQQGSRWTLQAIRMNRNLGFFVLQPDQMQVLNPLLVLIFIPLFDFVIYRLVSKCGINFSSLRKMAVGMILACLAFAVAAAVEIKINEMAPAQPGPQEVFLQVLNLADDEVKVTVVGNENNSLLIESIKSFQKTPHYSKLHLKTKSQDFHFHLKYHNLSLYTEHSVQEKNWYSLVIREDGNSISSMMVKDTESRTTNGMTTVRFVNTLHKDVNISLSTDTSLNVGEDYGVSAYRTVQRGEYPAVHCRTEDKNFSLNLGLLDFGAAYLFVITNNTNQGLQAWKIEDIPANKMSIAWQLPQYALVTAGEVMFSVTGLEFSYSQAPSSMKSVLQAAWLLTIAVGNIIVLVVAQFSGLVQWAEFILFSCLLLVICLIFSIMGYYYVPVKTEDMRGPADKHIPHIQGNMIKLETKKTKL
Description: as §2

[5] = target: T2, PEPT1; assay: Electrophysiological analysis of transport currents in Xenopus oocytes expressing PEPT1; type: cell-based, mammalian; conditions: transport current in Xenopus oocytes relative to 5 mM Gly-Gln
Description: as §2

[6] = target: T3, PEPT2; assay: Electrophysiological analysis of transport currents in Xenopus oocytes expressing PEPT2; type: cell-based, mammalian; conditions: transport current in Xenopus oocytes relative to 5 mM Gly-Gln
Description: as §2

[7] = target: T4, plasma DP IV (Rattus norvegicus, UniProt P14740); assay: Plasma DP IV activity after intravasal and oral administration in Wistar rats; type: in vivo
T4 construct: The assay mixture consisted of 80 μl reagent and 20 μl plasma; from tissue; host or cells: plasma of Wistar rats
T4 sequence (P14740 37-767 limits assumed): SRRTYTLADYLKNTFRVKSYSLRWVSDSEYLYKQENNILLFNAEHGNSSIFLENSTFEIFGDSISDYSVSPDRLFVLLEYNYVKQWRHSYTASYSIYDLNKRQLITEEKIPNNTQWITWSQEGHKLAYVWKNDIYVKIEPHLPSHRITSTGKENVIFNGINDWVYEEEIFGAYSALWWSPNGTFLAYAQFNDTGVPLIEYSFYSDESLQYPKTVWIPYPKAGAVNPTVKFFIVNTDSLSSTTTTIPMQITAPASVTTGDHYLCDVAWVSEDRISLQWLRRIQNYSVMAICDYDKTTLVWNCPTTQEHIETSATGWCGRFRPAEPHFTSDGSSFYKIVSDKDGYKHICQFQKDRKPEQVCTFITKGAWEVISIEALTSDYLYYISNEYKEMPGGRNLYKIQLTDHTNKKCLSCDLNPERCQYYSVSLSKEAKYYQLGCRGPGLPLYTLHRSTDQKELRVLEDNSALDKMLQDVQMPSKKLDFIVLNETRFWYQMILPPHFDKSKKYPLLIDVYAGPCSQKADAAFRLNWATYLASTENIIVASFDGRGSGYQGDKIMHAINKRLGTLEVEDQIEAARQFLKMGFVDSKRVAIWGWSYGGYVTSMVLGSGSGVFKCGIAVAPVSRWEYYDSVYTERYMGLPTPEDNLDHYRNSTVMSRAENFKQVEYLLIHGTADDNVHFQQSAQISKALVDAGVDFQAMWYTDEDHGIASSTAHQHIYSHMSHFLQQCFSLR
Protocol: Rats with intact catheter function were given the test substances intravasal (intraarterial) or oral, respectively, in random order (N=3 Wistar rats in each group). As positive control, […]. isoleucine thiazolidine*fumarate were administered intravasal.
After overnight fasting, 100 μl samples of heparinized arterial blood were collected at −30, −5, and 0 min into ice-cooled Eppendorf tubes (see below). The test substances were dissolved freshly in 1.0 ml saline (0.154 mol/l) and were given at 0 min either oral via a feeding tube ([…], 75 mm; Fine Science Tools, Heidelberg, Germany) or intravasal. For the intravasal route, the catheter was immediately flushed with 30 μl saline and an additional 1 ml of saline was given orally via the feeding tube.
Arterial blood samples were taken thereafter at 5, 10 (only in a limited number of experiments), 20, 40, 60 and 120 min from the carotid catheter of the conscious unrestrained rats and were always given into ice cooled Eppendorf tubes (Eppendorf-Netheler-Hinz, Hamburg, Germany) filled with 10 μl 1 M citrate buffer pH 3.0 for prevention of further hydrolysis of tripeptides by plasma DP IV activity. Eppendorf tubes were centrifuged immediately (12000 rpm for 2 min, Hettich Zentrifuge EBA 12, Tuttlingen; Germany): The plasma fractions were store on ice until analysis or were deeply frozen at −20 ° C. until analysis.
Plasma DP IV activity: The assay mixture consisted of 80 μl reagent and 20 μl plasma. Kinetic measurements of the formation of the yellow product 4-nitroaniline were performed at 390 nm for 1 min at 30° C. after 2 min pre-incubation at the same temperature. The activity was expressed as arbitrary units [AU] and DP IV activity [mU/ml].
The absolute values of plasma DP IV activity, the relative change of plasma DP IV activity and the time and extent of maximal inhibition were calculated. Data presentation included the presentation of area under the curve (AUC), which was used for evaluation of extent of inhibition of plasma DP IV activity during the two hours of observation. AUC was calculated using the trapezoidal rule.
To compare relative changes of parameters under the conditions of different initial values of DP IV activity an uniform standardised mean (values) was set up at the beginning of the test (see Figures and Tables).
Statistical evaluations were performed with Microsoft Excel® 97. All variables are presented as mean and standard deviation (SD). Treatment groups were compared by Student's t-test, within-group changes by paired t-test. Two-tailed values of p<0.05 were considered significant.

[8] = Gly-Pro-pNA 0.4 mM, HEPES pH 7.6, 30° C., read-out: IC50
[9] = displacement of radiolabeled tracer dipeptide, transgenic yeast cells, read-out: PEPT1 EC50
[10] = displacement of radiolabeled tracer dipeptide, transgenic yeast cells, read-out: PEPT2 EC50

Row | Compound | IC50 [1, 8] | Ki [2] | EC50 [3, 9] | EC50 [4, 10] | PEPT1 Residual uptake % IGly-Gln [5] | PEPT2 Residual uptake % IGly-Gln [6] | IC50 [1] | DPIV inhibition at tmax, p.o. ([7]; Wistar rats, p.o., 100 mg/kg) | inhibition at 100 mg/kg ([7]; rat, iv, read-out: DPIV inhibition at tmax, i.v.) | EC50 [3] | EC50 [4]
1 | CC[C@H](C)[C@H](NC(=O)[C@@H]1CCCN1C(=O)[C@@H](N)CC1CCCCC1)C(=O)O [Cha-Pro-Ile] (H-[Cha]-Pro-Ile-OH; N-terminus and C-terminus assumed) | 20.3 µM | 5.99 µM | 141 ± 9 µM | 124 ± 1 µM | 90 % IGly-Gln | 100 % IGly-Gln | – | – | – | – | –
2 | CC[C@H](C)[C@H](NC(=O)[C@@H]1CCCN1C(=O)[C@@H](N)COP(=O)(O)O)C(=O)O [Ser(P)-Pro-Ile] (H-[pS]-Pro-Ile-OH; N-terminus and C-terminus assumed) | 12000 µM | – | 4100 ± 1300 µM | 4900 ± 1090 µM | 0 % IGly-Gln | 0 % IGly-Gln | – | – | – | – | –
3 | CC[C@H](C)[C@H](NC(=O)[C@@H]1CCCN1C(=O)[C@@H](N)Cc1ccc(OP(=O)(O)O)cc1)C(=O)O [Tyr(P)-Pro-Ile] (H-[pY]-Pro-Ile-OH; N-terminus and C-terminus assumed) | – | – | – | – | 0 % IGly-Gln | 0 % IGly-Gln | 1770 µM | no inhibition | 37% | 902 ± 58 µM | 390 ± 17 µM
4 | CC[C@@H](C)[C@@H](NC(=O)[C@@H]1CCCN1C(=O)[C@@H](N)C(C)(C)C)C(=O)O [t-butyl-Gly-Pro-D-Ile] (H-[Tle]-Pro-[dI]-OH; N-terminus and C-terminus assumed) | – | – | 10600 ± 64 µM | 2300 ± 1120 µM | 0 % IGly-Gln | 0 % IGly-Gln | – | – | – | – | –
5 | CC(C)[C@@H](NC(=O)[C@@H]1CCCN1C(=O)[C@@H](N)C(C)(C)C)C(=O)O [t-butyl-Gly-Pro-D-Val] (H-[Tle]-Pro-[dV]-OH; N-terminus and C-terminus assumed) | 112 µM | 26.5 µM | 11100 ± 2800 µM | 1500 ± 240 µM | 0 % IGly-Gln | 0 % IGly-Gln | – | – | – | – | –
